Series [1] concerns Mus musculus. The experiment in a line: Toxicity in Swiss albino mouse assessed as change in ALKP activity at 5 mg/kg, po after 7 days (reference value: 83.29 +/- 9.77 U/L ). To be noted: in vivo, 168 h. The arrangement: dose 5 mg/kg, route oral. The format is organism-based.
For series [2], the system named is Mus musculus. The series is described as follows: Toxicity in Swiss albino mouse assessed as change in ALKP activity at 300 mg/kg, po after 7 days (reference value: 83.29 +/- 9.77 U/L ). The format is organism-based. Also on record: dose 300 mg/kg, route oral. The note with it: in vivo, 168 h.
The subject of series [3] is Mus musculus. The series is described as follows: Toxicity in Swiss albino mouse assessed as change in serum hemoglobin level at 5 mg/kg, po after 7 days (reference value: 13.38 +/- 1 g/dL ). The note with it: in vivo, 168 h. Also on record: dose 5 mg/kg, route oral. The format is organism-based.
Series [4] concerns Mus musculus. The series is described as follows: Toxicity in Swiss albino mouse assessed as change in serum hemoglobin level at 50 mg/kg, po after 7 days (reference value: 13.38 +/- 1 g/dL ). The class given is organism-based. The arrangement: dose 50 mg/kg, route oral. The note with it: in vivo, 168 h.
The test system of series [5] is Mus musculus. The series is described as follows: Toxicity in Swiss albino mouse assessed as change in serum hemoglobin level at 300 mg/kg, po after 7 days (reference value: 13.38 +/- 1 g/dL ). The format is organism-based. The arrangement: dose 300 mg/kg, route oral. The note with it: in vivo, 168 h.
The test system of series [6] is Mus musculus. The experiment in a line: Toxicity in Swiss albino mouse assessed as serum total cholesterol level at 300 mg/kg, po after 7 days (reference value: 116.07 +/- 8.86 mg/dL ). The format is organism-based. The arrangement: dose 300 mg/kg, route oral. To be noted: in vivo, 168 h.
Series [7] has as its system Mus musculus. The experiment in a line: Toxicity in Swiss albino mouse assessed as change in absolute kidney weight at 5 to 1000 mg/kg, po after 7 days. The arrangement: dose 5-1000 mg/kg, route oral. The note with it: in vivo, 168 h. The class given is organism-based.
For series [8], the system named is Mus musculus. The series is described as follows: Toxicity in Swiss albino mouse assessed as change in absolute brain weight at 5 to 1000 mg/kg, po after 7 days. Also on record: dose 5-1000 mg/kg, route oral. The class given is organism-based. To be noted: in vivo, 168 h.
In series [9] the test system is Mus musculus. The experiment in a line: Toxicity in Swiss albino mouse assessed as change in relative brain weight at 5 to 1000 mg/kg, po after 7 days. The class given is organism-based. The arrangement: dose 5-1000 mg/kg, route oral. The note with it: in vivo, 168 h.
A further series has as its system A549. The series is described as follows: Cytotoxicity against human A549 cells after 48 hrs by SRB assay. To be noted: A549, 48 h. The class given is functional, cell-based. A general note: The SRB assay estimates cell density from bound dye.
In series [10] the test system is Mus musculus. The series is described as follows: Toxicity in Swiss albino mouse assessed as morbidity at 5 to 300 mg/kg, po after 7 days. The class given is organism-based. Also on record: dose 5-300 mg/kg, route oral. To be noted: in vivo, 168 h.
In series [11] the test system is Mus musculus. The experiment in a line: Toxicity in Swiss albino mouse assessed as hyperactivity at 1000 mg/kg, po after 7 days for 10 mins. The class given is organism-based. The arrangement: dose 1000 mg/kg, route oral. To be noted: in vivo.
The test system of series [12] is Mus musculus. The experiment in a line: Toxicity in Swiss albino mouse assessed as change in serum SGPT activity at 50 mg/kg, po after 7 days (reference value: 9.3 +/- 0.89 U/L ). The class given is organism-based. The arrangement: dose 50 mg/kg, route oral. To be noted: in vivo, 168 h.
Series [13] relates to Mus musculus. The experiment in a line: Toxicity in Swiss albino mouse assessed as change in serum SGPT activity at 1000 mg/kg, po after 7 days (reference value: 9.3 +/- 0.89 U/L ). The format is organism-based. The arrangement: dose 1000 mg/kg, route oral. To be noted: in vivo, 168 h.
Series [14] deals with Mus musculus. The experiment in a line: Toxicity in Swiss albino mouse assessed as change in serum SGOT activity at 5 mg/kg, po after 7 days (reference value: 20.47 +/- 2.07 U/L ). The note with it: in vivo, 168 h. Also on record: dose 5 mg/kg, route oral. The format is organism-based.
Series [15] deals with Mus musculus. The experiment in a line: Toxicity in Swiss albino mouse assessed as change in serum SGPT activity at 50 mg/kg, po after 7 days (reference value: 20.47 +/- 2.07 U/L ). The format is organism-based. The arrangement: dose 50 mg/kg, route oral. The note with it: in vivo, 168 h.

As to `COc1cc(C2/C(=C/c3ccc4c(c3)OCO4)C(=O)c3cc(OC)c(OC)c(OC)c32)cc(OC)c1OC` (stereo unspecified), the Activity came out at 82.51 U/L in the series on Mus musculus [1]; 90.11 U/L in the series with Mus musculus [2]; 11.31 g/dL with Mus musculus [3]; 12.93 g/dL with Mus musculus [4]; 11.46 g/dL in the series on Mus musculus [5]; 117.57 mg/dL in the series with Mus musculus [6]. In addition, the Activity result with Mus musculus [7] is “Non-toxic”; in the series with Mus musculus [8] it was “Non-toxic”; in the series with Mus musculus [9], “Non-toxic”; in the series with Mus musculus [10] it was “Non-toxic”; in the series on Mus musculus [11], “Toxic”; with Mus musculus [12], 9.77 U/L. The results for the Activity in the series with Mus musculus [13], with Mus musculus [14] and with Mus musculus [15] were 19.68 U/L, 18.74 U/L and 20.66 U/L, respectively. For the same compound, 11 µM corresponded to half-maximal inhibition with A549 (IC50).
